One data set has as its system S. aureus. The data set can be described thus: S. aureus bacterial proliferation assay. The class given is cell-based. The following applies: Staphylococcus aureus, read-out: S. aureus Proliferation EC50. In outline:
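Growth in BHI with 25 mg/L Ca2+ and 12.5 mg/L Mg2+; log-phase cultures diluted to OD600 0.017 and exposed to compounds at 100 μM–46 nM (3-fold series). Stagnant 37 °C incubation, OD600 read at 6–8 h, corrected with bacteria-free plates; EC50 by variable-slope nonlinear regression.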

A short description of data set [1]: HEK 293 kidney cell viability / cytotoxicity assay (Alamar Blue). The class given is cell-based. The following applies: human, 48 h incubation, Alamar Blue, read-out: HEK 293 Kidney Cell Viability CC50.
The mark [2] stands for this setting: Table 3, cation adjusted BHI media, OD600 at 6-8 h.
The mark [3] stands for this setting: Table 1, cation adjusted BHI media, OD600 at 6-8 h.

Read-outs that look alike come from different tables or passages of the source.

The term CC50 denotes the concentration at which the toxic effect on the cells reaches its halfway point. Consider `O=C(Nc1ccc(Oc2ccccc2)c(Cl)c1)c1cc(Cl)ccc1O` [Compound 91, 5-chloro-N-(3-chloro-4-phenoxyphenyl)-2-hydroxybenzamide], for which the EC50 in the data set with S. aureus (setting [2]) came to 0.21 µM. Also, the cytotoxic concentration (CC50) at 48 h in data set [1] (Table 3) was found to be 4.7 µM.
Regarding `COc1ccc(Cl)cc1C(=O)Nc1ccc(Oc2ccccc2)cc1` [Compound 92, 5-chloro-2-methoxy-N-(4-phenoxyphenyl)benzamide], the EC50 in the data set with S. aureus (setting [2]) was above 100 µM. The CC50 at 48 h in data set [1] (HEK 293 kidney cells, Table 3) is above 100 µM.
Turning to `O=C(Nc1ccc(Oc2ccccc2)cc1)c1cc(Cl)ccc1O` [Compound 93, 5-chloro-2-hydroxy-N-(4-phenoxyphenyl)benzamide], the EC50 in the data set with S. aureus (setting [2]) came to 0.36 µM. In data set [1] (HEK 293 kidney cells, Table 3), the CC50 at 48 h turned out to be 20 µM.
The like results for `COc1ccc(Cl)cc1C(=O)Nc1ccc(Sc2nc3ccccc3s2)c(Cl)c1` [Compound 94, N-(4-(benzo[d]thiazol-2-ylthio)-3-chlorophenyl)-5-chloro-2-methoxybenzamide] were, in that order, above 100 µM and above 100 µM.
Regarding `O=C(Nc1ccc(Sc2nc3ccccc3s2)c(Cl)c1)c1cc(Cl)ccc1O` [Compound 95, N-(4-(benzo[d]thiazol-2-ylthio)-3-chlorophenyl)-5-chloro-2-hydroxybenzamide], the EC50 with S. aureus (setting [2]) amounted to 0.14 µM. Further, the CC50 at 48 h in data set [1] (HEK 293 kidney cells, Table 3) worked out at 83 µM.
The like results for `COc1ccc(Cl)cc1C(=O)Nc1ccc(Sc2nc3ccccc3s2)cc1` [Compound 96, N-(4-(benzo[d]thiazol-2-ylthio)phenyl)-5-chloro-2-methoxybenzamide] were, in that order, above 100 µM and 56 µM.
Consider `O=C(Nc1ccc(Sc2nc3ccccc3s2)cc1)c1cc(Cl)ccc1O` [Compound 97, N-(4-(benzo[d]thiazol-2-ylthio)phenyl)-5-chloro-2-hydroxybenzamide], for which the EC50 in the data set with S. aureus (setting [2]) was found to be 0.1 µM. The CC50 at 48 h in data set [1] (HEK 293 kidney cells, Table 3) came to 28 µM.
Taken in the same sequence, the figures for `COc1ccc(Cl)cc1C(=O)Nc1ccc(Cc2ccccc2)cc1` [Compound 98, N-(4-benzylphenyl)-5-chloro-2-methoxybenzamide] were above 100 µM and above 100 µM.
On to `O=C(Nc1ccc(Cc2ccccc2)cc1)c1cc(Cl)ccc1O` [Compound 99, N-(4-benzylphenyl)-5-chloro-2-hydroxybenzamide], for which the EC50 in the data set with S. aureus (setting [2]) was above 100 µM. Further, in data set [1] (Table 3), the 50% cytotoxic concentration (CC50) at 48 h amounted to 19 µM.
Take `COc1ccc(Cl)cc1C(=O)Nc1ccc(CCc2ccccc2)cc1` [Compound 100, 5-chloro-2-methoxy-N-(4-phenethylphenyl)benzamide]: the EC50 in the data set with S. aureus (setting [2]) is above 100 µM. Moreover, the CC50 at 48 h in data set [1] (HEK 293 kidney cells, Table 3) was above 100 µM.
Take `O=C(Nc1ccc(CCc2ccccc2)cc1)c1cc(Cl)ccc1O` [Compound 101]: the EC50 in the data set on S. aureus (setting [2]) was found to be 83 µM. Also, in data set [1] (HEK 293 kidney cells, Table 3), the CC50 at 48 h was 4.3 µM.
As to `COc1ccc(Cl)cc1C(=O)Nc1ccc(OCc2ccccc2)cc1` [Compound 102, N-(4-(benzyloxy)phenyl)-5-chloro-2-methoxybenzamide], the EC50 in the data set on S. aureus (setting [2]) is above 100 µM. Further, the CC50 at 48 h in data set [1] (HEK 293 kidney cells, Table 3) was above 100 µM.
With `O=C(Nc1ccc(OCc2ccccc2)cc1)c1cc(Cl)ccc1O` [Compound 103, N-(4-(benzyloxy)phenyl)-5-chloro-2-hydroxybenzamide], the EC50 in the data set with S. aureus (setting [2]) was above 100 µM. Besides, the CC50 at 48 h in data set [1] (HEK 293 kidney cells, Table 3) is above 100 µM.
For `COc1ccc(Cl)cc1C(=O)Nc1ccc(NC(C)=O)cc1` [Compound 104, N-(4-acetamidophenyl)-5-chloro-2-methoxybenzamide], in the data set on S. aureus (setting [2]), the EC50 is above 100 µM. Besides, the CC50 at 48 h in data set [1] (HEK 293 kidney cells, Table 3) is above 100 µM.
For `CC(=O)Nc1ccc(NC(=O)c2cc(Cl)ccc2O)cc1` [Compound 105, N-(4-acetamidophenyl)-5-chloro-2-hydroxybenzamide], in the data set with S. aureus (setting [2]), the EC50 was above 100 µM. In data set [1] (HEK 293 kidney cells, Table 3), the CC50 at 48 h came to 69 µM.
The like results for `COC(=O)c1ccc(NC(=O)c2cc(Cl)ccc2OC)cc1` [Compound 106, methyl 4-(5-chloro-2-methoxybenzamido)benzoate] were, in that order, above 100 µM and 24 µM.
Taken in the same sequence, the figures for `COC(=O)c1ccc(NC(=O)c2cc(Cl)ccc2O)cc1` [Compound 107, methyl 4-(5-chloro-2-hydroxybenzamido)benzoate] were 0.94 µM and 11 µM.
`COc1ccc(Cl)cc1C(=O)Nc1ccc(C(=O)O)cc1` [Compound 108, 4-(5-chloro-2-methoxybenzamido)benzoic acid]: in the data set on S. aureus (setting [2]), the EC50 is above 100 µM. Moreover, in data set [1] (HEK 293 kidney cells, Table 3), the 50% cytotoxic concentration (CC50) at 48 h was above 100 µM.
On to `COc1ccc(Cl)cc1C(=O)Nc1ccc(CC#N)cc1` [Compound 110, 5-chloro-N-(4-(cyanomethyl)phenyl)-2-methoxybenzamide], for which the EC50 in the data set with S. aureus (setting [2]) is above 100 µM. In addition, the CC50 at 48 h in data set [1] (HEK 293 kidney cells, Table 3) was above 100 µM.
Turning to `N#CCc1ccc(NC(=O)c2cc(Cl)ccc2O)cc1` [Compound 111, 5-chloro-N-(4-(cyanomethyl)phenyl)-2-hydroxybenzamide], the EC50 in the data set on S. aureus (setting [2]) is above 100 µM. The CC50 at 48 h in data set [1] (HEK 293 kidney cells, Table 3) turned out to be 19 µM.
Regarding `COc1ccc(NC(=O)c2cc(Cl)ccc2OC)cc1` [Compound 112, 5-chloro-2-methoxy-N-(4-methoxyphenyl)benzamide], the EC50 with S. aureus (setting [2]) is above 100 µM. Besides, in data set [1] (HEK 293 kidney cells, Table 3), the CC50 at 48 h was above 100 µM.
`COc1ccc(NC(=O)c2cc(Cl)ccc2O)cc1` [Compound 113, 5-chloro-2-hydroxy-N-(4-methoxyphenyl)benzamide]: the EC50 in the data set on S. aureus (setting [2]) stood at 31 µM. For the same compound, the CC50 at 48 h in data set [1] (HEK 293 kidney cells, Table 3) came to 19 µM.
Taken in the same sequence, the figures for `COc1ccc(Cl)cc1C(=O)Nc1ccc(O)cc1` [Compound 114, 5-chloro-N-(4-hydroxyphenyl)-2-methoxybenzamide] were above 100 µM and above 100 µM.
On to `O=C(Nc1ccc(O)cc1)c1cc(Cl)ccc1O` [Compound 115, 5-chloro-2-hydroxy-N-(4-hydroxyphenyl)benzamide], for which the EC50 with S. aureus (setting [2]) is above 100 µM. The cytotoxic concentration (CC50) at 48 h in data set [1] (HEK 293 kidney cells, Table 3) is above 100 µM.
For the compound `COc1ccc(Cl)cc1C(=O)Nc1ccccc1` [Compound 116, 5-chloro-2-methoxy-N-phenylbenzamide], the EC50 with S. aureus (setting [2]) is above 100 µM. The 50% cytotoxic concentration (CC50) at 48 h in data set [1] (HEK 293 kidney cells, Table 3) was above 100 µM.
With `O=C(Nc1ccccc1)c1cc(Cl)ccc1O` [Compound 117, 5-chloro-2-hydroxy-N-phenylbenzamide], the EC50 in the data set on S. aureus (setting [2]) is 2.2 µM. In addition, the CC50 at 48 h in data set [1] (HEK 293 kidney cells, Table 3) is 13 µM.
On to `O=C(Nc1ccc([N+](=O)[O-])cc1Cl)c1cc(Cl)ccc1O` [Niclosamide, reference compound], for which the EC50 with S. aureus (setting [3]) came out at 0.074 µM. In addition, the CC50 at 48 h in data set [1] (HEK 293 kidney cells, Table 1) amounted to 1.7 µM.
The like results for `CC(=O)Oc1ccccc1C(=O)Nc1ncc([N+](=O)[O-])s1` [Nitazoxanide, reference compound] were, in that order, 12 µM and 30 µM.
The like results for `O=C(Nc1cc(Cl)cc(Cl)c1O)c1c(O)c(Cl)cc(Cl)c1Cl` [Oxyclosanide, reference compound] were, in that order, 0.52 µM and 30 µM.
Regarding `O=C(Nc1ccc(Oc2ccc(Cl)cc2)c(Cl)c1)c1cc(I)cc(I)c1O` [Rafoxanide, reference compound], the EC50 in the data set on S. aureus stood at 0.3 µM. The CC50 at 48 h in data set [1] (Table 1) is 82 µM.
For the compound `O=C(Nc1ncc([N+](=O)[O-])s1)c1ccccc1O` [Tizoxanide, reference compound], in the data set with S. aureus (setting [3]), the EC50 turned out to be 9.7 µM. Also, the CC50 at 48 h in data set [1] (HEK 293 kidney cells, Table 1) was determined as 31 µM.

The record behind these values is patent US20230406831A1, “COMPOUNDS AND METHODS OF INHIBITING BACTERIAL CHAPERONIN SYSTEMS” (THE TRUSTEES OF INDIANA UNIVERSITY, priority 2020, published 2023).
